# Results from US7041687B2, “Indazole compounds useful as protein kinase inhibitors” (Vertex Pharmaceuticals Incorporated, priority 2002, dated 2006).
# Values joined by “and” are separate entries in the source; they are usually repeats but may differ in a detail not shown here. Equal entries are not always repeated.
# Assays:
# Format in all cases: biochemical
# PDK-1 = biological target: T1, PDK-1 (Homo sapiens, UniProt O15530); test: PDK-1 inhibition assay (radioactive-phosphate incorporation); conditions: 40 μM ATP, 65 μM PDKtide, 25 nM PDK-1, 30° C.
# T1 sequence (O15530 1-556): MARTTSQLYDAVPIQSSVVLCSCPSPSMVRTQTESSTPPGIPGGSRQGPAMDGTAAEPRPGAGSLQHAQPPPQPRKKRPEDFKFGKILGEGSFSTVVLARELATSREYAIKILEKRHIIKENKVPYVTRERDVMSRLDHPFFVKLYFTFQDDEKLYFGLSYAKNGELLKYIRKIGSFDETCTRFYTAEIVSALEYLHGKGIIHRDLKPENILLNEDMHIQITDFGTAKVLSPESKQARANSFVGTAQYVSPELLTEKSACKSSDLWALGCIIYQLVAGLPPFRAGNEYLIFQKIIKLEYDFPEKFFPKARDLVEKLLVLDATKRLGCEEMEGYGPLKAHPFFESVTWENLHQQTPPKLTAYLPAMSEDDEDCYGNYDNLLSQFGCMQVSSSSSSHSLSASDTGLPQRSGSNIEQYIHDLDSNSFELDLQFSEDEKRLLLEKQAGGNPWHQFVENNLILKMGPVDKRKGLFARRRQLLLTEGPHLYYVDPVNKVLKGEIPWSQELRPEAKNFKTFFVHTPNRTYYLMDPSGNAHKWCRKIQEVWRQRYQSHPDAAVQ
# PKA = PKA (Homo sapiens, UniProt P17612); test: PKA inhibition assay (standard coupled enzyme assay); conditions: 50 μM ATP, 80 μM Kemptide, 18 nM PKA, 30° C.
# How it was run: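 Coupled PK/LDH assay (NADH read) with 18 nM PKA, 50 μM ATP and 80 μM Kemptide in 100 mM HEPES 7.5, 10 mM MgCl2, 3% DMSO at 30 °C. Compound dilutions (typically from 5 μM final) preincubated 10 min before ATP start; initial rates over 15 min gave IC50 and Ki by non-linear regression.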
# AKT-3 = AKT-3 (Homo sapiens, UniProt Q9Y243); test: AKT-3 inhibition assay (standard coupled enzyme assay); conditions: 170 μM ATP, 200 μM peptide, 45 nM AKT, 30° C.
# AKT-3, sequence (Q9Y243 whole entry): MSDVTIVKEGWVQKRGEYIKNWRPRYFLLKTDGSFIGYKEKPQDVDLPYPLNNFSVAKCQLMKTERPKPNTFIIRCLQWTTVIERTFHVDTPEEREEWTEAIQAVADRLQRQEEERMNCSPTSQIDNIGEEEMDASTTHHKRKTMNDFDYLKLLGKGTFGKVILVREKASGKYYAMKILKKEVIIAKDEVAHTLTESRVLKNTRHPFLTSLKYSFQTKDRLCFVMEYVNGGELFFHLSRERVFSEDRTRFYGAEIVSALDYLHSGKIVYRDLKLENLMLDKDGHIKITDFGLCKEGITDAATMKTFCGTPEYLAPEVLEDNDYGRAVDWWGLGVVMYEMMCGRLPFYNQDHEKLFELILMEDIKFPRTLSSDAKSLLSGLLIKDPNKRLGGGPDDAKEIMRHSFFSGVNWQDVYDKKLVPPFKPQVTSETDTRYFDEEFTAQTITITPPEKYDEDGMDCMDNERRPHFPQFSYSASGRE
Structure (SMILES),Ki (PDK-1),Ki (PKA) [nM],Ki (AKT-3) [nM]
NCCC(C(=O)Nc1ccc2[nH]nc(NC(=O)c3ccc(Oc4ccccc4)cc3)c2c1)c1ccc(Cl)c(Cl)c1 (stereo not drawn) [Compound I-199],1000 to 3000 nM,< 1000,< 1000
NCCC(C(=O)Nc1ccc2[nH]nc(NC(=O)c3cc(F)cc(F)c3)c2c1)c1ccc(Cl)c(Cl)c1 (stereo not drawn) [Compound I-201],> 3000 nM,< 1000,< 1000
NCCC(C(=O)Nc1ccc2[nH]nc(NC(=O)c3cc(F)cc(C(F)(F)F)c3)c2c1)c1ccc(Cl)c(Cl)c1 (stereo not drawn) [Compound I-203],> 3000 nM,< 1000,< 1000
CN(C)CC(C(=O)Nc1ccc2[nH]ncc2c1)c1ccc(Cl)c(Cl)c1 (stereo not drawn) [Compound I-227],> 3000 nM,< 1000,< 1000
NCC(C(=O)Nc1ccc2[nH]nc(-c3ccccc3)c2c1)c1ccc(Cl)c(Cl)c1 (stereo not drawn) [Compound I-231],< 1000 nM,< 1000,< 1000
N#Cc1cccc(Nc2n[nH]c3ccc(NC(=O)C(CN)c4ccc(Cl)c(Cl)c4)cc23)c1 (stereo not drawn) [Compound I-232],> 3000 nM,< 1000,< 1000
Cc1n[nH]c2ccc(NC(=O)C(CN)c3ccc(Cl)c(Cl)c3)cc12 (stereo not drawn) [Compound I-233],1000 to 3000 nM and > 3000 nM,< 1000,< 1000
COC(=O)c1ccc(-c2n[nH]c3ccc(NC(=O)C(CCN)c4ccccc4)cc23)cc1 (stereo not drawn) [Compound I-235],< 1000 nM,< 1000,1000 to 10000
NCCC(C(=O)Nc1ccc2[nH]nc(-c3ccc(-c4ccccc4)cc3)c2c1)c1ccccc1 (stereo not drawn) [Compound I-236],< 1000 nM,< 1000,1000 to 10000
NC[C@@H](C(=O)Nc1ccc2[nH]ncc2c1)c1ccc(Cl)c(Cl)c1 [Compound I-247],> 3000 nM,< 1000,< 1000
NCCC(C(=O)Nc1ccc2[nH]ncc2c1)c1cccc(OCc2ccccc2)c1 (stereo not drawn) [Compound I-1006],< 1000 nM,< 1000,< 1000
NCCC(C(=O)Nc1ccc2[nH]nc(-c3ccccc3)c2c1)c1ccccc1 (stereo not drawn) [Compound I-1028],< 1000 nM,< 1000,1000 to 10000
NCCC(C(=O)Nc1ccc2[nH]nc(Nc3cccc(F)c3)c2c1)c1ccccc1 (stereo not drawn) [Compound I-1039],> 3000 nM,< 1000,1000 to 10000
NCCC(C(=O)Nc1ccc2[nH]nc(NC(=O)c3cccs3)c2c1)c1ccccc1 (stereo not drawn) [Compound I-1043],< 1000 nM,< 1000,< 1000
NCC[C@H](C(=O)Nc1ccc2[nH]nc(NC(=O)c3cccs3)c2c1)c1ccccc1 [Compound I-1044],< 1000 nM,< 1000,< 1000

# Results, then the compound that gave them:
Ki (PDK-1),Ki (PKA) [nM],Ki (AKT-3) [nM],Structure (SMILES)
> 3000 nM,< 1000,< 1000,NCCC(C(=O)Nc1ccc2[nH]nc(NC(=O)c3cccc(C(F)(F)F)c3)c2c1)c1ccc(Cl)c(Cl)c1 (stereo not drawn) [Compound I-200]
> 3000 nM,1000 to 5000,< 1000,NCCC(C(=O)Nc1ccc2[nH]nc(NC(=O)c3cc(C(F)(F)F)cc(C(F)(F)F)c3)c2c1)c1ccc(Cl)c(Cl)c1 (stereo not drawn) [Compound I-202]
> 3000 nM,< 1000,< 1000,NCCC(C(=O)Nc1ccc2[nH]nc(NC(=O)c3cccc(OC(F)(F)F)c3)c2c1)c1ccc(Cl)c(Cl)c1 (stereo not drawn) [Compound I-204]
< 1000 nM,< 1000,< 1000,CNc1ccc(C(=O)Nc2n[nH]c3ccc(NC(=O)C(CCN)c4ccc(Cl)c(Cl)c4)cc23)cc1 (stereo not drawn) [Compound I-206]
< 1000 nM,< 1000,< 1000,CCNc1ccc(C(=O)Nc2n[nH]c3ccc(NC(=O)C(CCN)c4ccc(Cl)c(Cl)c4)cc23)cc1 (stereo not drawn) [Compound I-207]
> 3000 nM,< 1000,< 1000,CN(C)CCC(C(=O)Nc1ccc2[nH]ncc2c1)c1ccc(Cl)c(Cl)c1 (stereo not drawn) [Compound I-226]
< 1000 nM,< 1000,< 1000,NCCC(C(=O)Nc1ccc2[nH]nc(-c3ccc(F)cc3)c2c1)c1ccc(Cl)c(Cl)c1 (stereo not drawn) [Compound I-234]
< 1000 nM,< 1000,< 1000,NCC(C(=O)Nc1ccc2[nH]ncc2c1)c1ccc(Cl)cc1 (stereo not drawn) [Compound I-242]
< 1000 nM,< 1000,1000 to 10000,NCCC(C(=O)Nc1ccc2[nH]nc(NC(=O)c3ccco3)c2c1)c1ccccc1 (stereo not drawn) [Compound I-1041]
< 1000 nM,1000 to 5000,10000 to 20000,NCC[C@H](C(=O)Nc1ccc2[nH]nc(-c3ccccc3)c2c1)c1ccccc1 [Compound I-1053]
